Laboratory results published in a melting point compilation (Tetko et al.; mined from patent text by program, amines drawn as free bases though some values may be those of a salt).

Compound | melting point [°C]
O=C(Nc1ccc(O[C@H]2CC[C@H](C(=O)O)CC2)cc1)c1nnc(Nc2cc(F)c(F)cc2F)o1 | 251 to 253
Cc1cc(C[C@H](N)[C@H](O)c2ccc(F)cc2)cc(OC(F)(F)C(F)F)c1 (racemic) | 96 to 98
CCC(CC)Nc1cc(C)nc(Nc2c(C)cc(C)cc2C)c1N | 213 to 216
O=C(O)c1cccc(N2CCN(CCc3ccccc3)CC2)c1F | 85.5 to 87.5
CC(=O)NCC1CC(c2ccc(-n3ccc(CO)c3)c(F)c2)=NO1 (single isomer, unassigned; (-)) | 162 to 164
Cn1c(C(F)(F)F)ccc(-c2cc(S(C)(=O)=O)c(Cl)cc2F)c1=O | 144 to 145
CC(C)NC(=O)Nc1ccc(Cl)cc1C(=O)c1ccccc1 | 190 to 192
Cc1ccnc2c1N=C(C#N)c1cccnc1N2C1CC1 | 192 to 193
Cn1cc2c(=O)[nH]c(=S)[nH]c2n1 | 200
CC12CCC(=O)C=C1CCN(Cc1ccccc1)C2 (centres undefined) | 98
N#Cc1ccccc1-c1ccc(CN=[N+]=[N-])cc1 | 69 to 70
COc1ccc2cc([C@H](C)C(=O)OCCOC(=O)C(=O)OCCCO[N+](=O)[O-])ccc2c1 | 55 to 58
O=C(NCCc1ccnc(-c2nc(=O)c3ccccc3s2)c1)c1ccccc1 | 217 to 219
CCC(=O)N1CCC(NC(=O)Nc2cccc(F)c2)CC1 | 158 to 164
O=C(O)COc1cccc2c1CCc1sc(SCC(c3ccccc3)c3ccccc3)nc1-2 | 223 to 225
CNC(=O)c1ccccc1Nc1nc(Nc2cc3c(cc2OC)CCN(CC(=O)N(C)C)CC3)ncc1Br | 225
CCCCCC(CCN1C(=O)NC2CC(=O)CC21)OC(C)=O (centres undefined) | 85 to 86
C[C@@H](c1nc(-c2ccc(C#N)cc2)cs1)[C@](O)(Cn1cncn1)c1ccc(F)cc1F | 164 to 166
CC(C)CCOCc1cc(-n2nc(C(N)=O)nc2-c2ccccc2F)ccc1Cl | 113 to 115
CN(O)C(=O)Nc1ccc(Oc2ccc(NC(=O)N(C)O)cc2)cc1 | 183 to 184

Compound | melting point [°C]
O=Cc1c(-c2ccccc2)nc2sc3c(n12)CCCC3 | 150
CCN(CC)C(=O)Oc1cc(CN/C=C2\C(=O)NC(=O)c3ccc(I)cc32)ccc1OC | 128 to 130
c1ccc(NCC2CCNCC2)cc1 | 60 to 61
CCCCCCCCOc1ccc2c(c1)C(=O)c1cc3ccccc3cc1C2=O | 127 to 129
O=C1Cc2ccc(N3C(=O)C4=C(CCCC4)C3=O)cc2N1 | 225 to 226
CCCc1nc2c(N)nc3cc(OCCCN4CCCS4(=O)=O)ccc3c2n1CC(C)C | 142 to 144
CC(=O)Nc1cccc(-n2cccc2)c1 | 134 to 136
N#CCCC1(C(N)=O)c2ccccc2-c2ccccc21 | 148 to 152
Cc1nn(-c2ccccc2)cc1C(=O)Nc1ccc(OCC(C)(C)C)c(C#N)c1 | 155 to 156
COC(=O)[C@H](Cc1cc(C)c(OCc2cccc3nc(-c4ccccc4)oc23)c(C)c1)NC(=O)OC(C)(C)C | 116 to 117
CCOC(=O)c1c(-c2ccccc2)c2cc(Cl)ccc2[nH]c1=O | 223 to 224
COCc1nc2c3c(ccn2c1C)C(=O)[C@H](O)[C@@H](c1ccccc1)N3 | 168 to 173
CC1(C)CS(=O)(=O)c2sc(S(N)(=O)=O)cc2C1O (centres undefined) | 172 to 174
O=C(NO)c1ccc(CNC(=O)c2[nH]c(-c3ccc(F)cc3)cc2-c2ccc(F)cc2)cc1 | 219 to 220
CCOC(=O)CCC(O)c1cnc2c(OC)cccc2c1Nc1ccccc1C (centres undefined) | 133 to 135
CC(O)C(=O)Nc1ccc(C2=NNC(=O)CC2C)cc1 (centres undefined) | 181 to 182
CCO[C@@H](Cc1ccc2oc(Cc3nc(-c4ccccc4)oc3C)cc2c1)C(=O)O | 129
Cc1cc(Cn2cnc(Cl)c2CC#N)ccc1OCc1ccccc1 | 102 to 105
CC1CC(=O)NN=C1c1ccc2c(c1)N(C1CCCC1)C(=O)C(C)O2 (centres undefined) | 220 to 223
